Results from ChEMBL document CHEMBL1201862, “PubChem BioAssay data set” (2004).
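Five concentrations, 48 hours, 96-well plates. GI50 is the concentration that inhibits growth by half.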 The source made the active and inactive calls. No stated cut-off is given here; in the data, active = GI50 up to about 1.1 µM and inactive = higher.

Experiments:
Test in all cases: growth of human tumour cells (NCI), 48 h
786-0 = system: 786-0
NCI/ADR-RES = system: NCI/ADR-RES
OVCAR-8 = system: OVCAR-8
MDA-N = system: MDA-N
SN12C = system: SN12C
NCI-H522 = system: NCI-H522
UACC-257 = system: UACC-257
HCT-15 = system: HCT-15
RXF 393 = system: RXF 393
IGROV-1 = system: IGROV-1
M14 = system: M14
MDA-MB-231 = system: MDA-MB-231
HOP-62 = system: HOP-62
SK-MEL-5 = system: SK-MEL-5
HL-60 = system: HL-60
SK-OV-3 = system: SK-OV-3
MOLT-4 = system: MOLT-4
SNB-19 = system: SNB-19
HOP-92 = system: HOP-92
SR = system: SR

SMILES | GI50 (786-0) | GI50 (NCI/ADR-RES) | GI50 (OVCAR-8) | GI50 (MDA-N) | GI50 (SN12C) | GI50 (NCI-H522) | GI50 (UACC-257) | GI50 (HCT-15) [µM] | GI50 (RXF 393) | GI50 (IGROV-1) | GI50 (M14) | GI50 (MDA-MB-231) | GI50 (HOP-62) | GI50 (SK-MEL-5) | GI50 (HL-60) | GI50 (SK-OV-3) | GI50 (MOLT-4) | GI50 (SNB-19) | GI50 (HOP-92) | GI50 (SR)
COc1nc2ccc(CNc3ccc(C(=O)O)cc3)cc2nc1OC | > 10 µM (inactive) | > 10 µM (inactive) | > 10 µM (inactive) | > 10 µM (inactive) | > 10 µM (inactive) | > 10 µM (inactive) | > 10 µM (inactive) | > 10 | > 10 µM (inactive) | > 10 µM (inactive) | > 10 µM (inactive) | > 10 µM (inactive) | > 10 µM (inactive) | > 10 µM (inactive) | > 10 µM (inactive) | > 10 µM (inactive) | > 10 µM (inactive) | > 10 µM (inactive) |  | 
COC1OC2COC(C)(C)OC2C2OC(C)(C)OC12 (centres undefined) | 18.6 µM (inactive) | 63.8 µM (inactive) | 55.7 µM (inactive) | 69.5 µM (inactive) | 21 µM (inactive) | > 100 µM (inactive) | 63.2 µM (inactive) | > 100 | 23.7 µM (inactive) | 18.7 µM (inactive) | > 100 µM (inactive) | 16 µM (inactive) | 21.7 µM (inactive) | > 100 µM (inactive) |  | 78.2 µM (inactive) | 25.3 µM (inactive) | 21.8 µM (inactive) |  | 
CCOC(=O)N1CCN(c2c(N)nc(C)nc2O)CC1 | > 100 µM (inactive) | > 100 µM (inactive) | > 100 µM (inactive) | > 100 µM (inactive) | > 100 µM (inactive) | > 100 µM (inactive) | > 100 µM (inactive) | > 100 |  |  | > 100 µM (inactive) | > 100 µM (inactive) | > 100 µM (inactive) |  | > 100 µM (inactive) |  | > 100 µM (inactive) | > 100 µM (inactive) | > 100 µM (inactive) | > 100 µM (inactive)
Cc1c2cccc-2ccc2c1[nH]c1ccc(Br)cc12 | 14.3 µM (inactive) | 9.59 µM (inactive) | 7.36 µM (inactive) | 6.32 µM (inactive) | 12.9 µM (inactive) | 2.48 µM (inactive) | 24.2 µM (inactive) | 3.62 |  | 2.56 µM (inactive) | 6.12 µM (inactive) | 4.33 µM (inactive) | 6.43 µM (inactive) | 3.9 µM (inactive) | 4.15 µM (inactive) | 14.7 µM (inactive) |  | 7.64 µM (inactive) | 3.61 µM (inactive) | 3.04 µM (inactive)
CCOC(=O)c1nc[nH]c1/N=N/N(C)N | 84.7 µM (inactive) | > 100 µM (inactive) | > 100 µM (inactive) | > 100 µM (inactive) | > 100 µM (inactive) | 22.4 µM (inactive) | > 100 µM (inactive) | 91.4 | > 100 µM (inactive) | > 100 µM (inactive) | > 100 µM (inactive) | > 100 µM (inactive) | > 100 µM (inactive) | > 100 µM (inactive) | 29.2 µM (inactive) | > 100 µM (inactive) | 44.2 µM (inactive) |  |  | 
Cc1c(S(=O)(=O)N/C(=N\O)Nc2ccc(Cl)cc2)sc2ccc(Cl)cc12 | 17.5 µM (inactive) | 18 µM (inactive) | 17.3 µM (inactive) | 18.2 µM (inactive) | 20.3 µM (inactive) | 9.91 µM (inactive) | 16.4 µM (inactive) | 16.6 | 22.3 µM (inactive) | 12.7 µM (inactive) | 16.9 µM (inactive) | 20.1 µM (inactive) | 17.7 µM (inactive) | 14.1 µM (inactive) | 19.3 µM (inactive) | 15.6 µM (inactive) | 27.2 µM (inactive) | 18.2 µM (inactive) | 14.6 µM (inactive) | 
OC(C1CCCCCCCCCC1)C(O)C1CCCCCCCCCC1 (centres undefined) | > 100 µM (inactive) | > 100 µM (inactive) | > 100 µM (inactive) | > 100 µM (inactive) | > 100 µM (inactive) | 61 µM (inactive) | > 100 µM (inactive) | > 100 | 93.1 µM (inactive) | > 100 µM (inactive) | > 100 µM (inactive) | > 100 µM (inactive) | > 100 µM (inactive) | > 100 µM (inactive) | > 100 µM (inactive) | > 100 µM (inactive) | 37.1 µM (inactive) | > 100 µM (inactive) |  | > 100 µM (inactive)
Cc1cc(=O)[nH]c(-n2[nH]c(C)c(CCO)c2=O)n1 | > 100 µM (inactive) | > 100 µM (inactive) | > 100 µM (inactive) | > 100 µM (inactive) | > 100 µM (inactive) | > 100 µM (inactive) | > 100 µM (inactive) | > 100 | > 100 µM (inactive) | > 100 µM (inactive) | > 100 µM (inactive) | > 100 µM (inactive) | > 100 µM (inactive) | > 100 µM (inactive) | > 100 µM (inactive) | > 100 µM (inactive) |  | > 100 µM (inactive) |  | 
O=C(c1ccccc1)n1cc(-c2ccccc2)c2c(=O)nc[nH]c21 | > 100 µM (inactive) | > 100 µM (inactive) | > 100 µM (inactive) | > 100 µM (inactive) | > 100 µM (inactive) | > 100 µM (inactive) | > 100 µM (inactive) | > 100 | > 100 µM (inactive) | > 100 µM (inactive) | > 100 µM (inactive) | > 100 µM (inactive) | > 100 µM (inactive) | > 100 µM (inactive) |  | > 100 µM (inactive) | > 100 µM (inactive) | > 100 µM (inactive) | > 100 µM (inactive) | 
CC(NC(=O)Cc1ccc(OP(=O)(OCc2ccc([N+](=O)[O-])o2)N(C)CCCCCl)cc1)c1ccc(OCC2CCCCC2)c(C(N)=O)c1 (centres undefined) | 2.92 µM (inactive) | 4.5 µM (inactive) | 3.6 µM (inactive) | 1.88 µM (inactive) | 1.96 µM (inactive) | 2.25 µM (inactive) | 1.67 µM (inactive) | 2.39 | 1.99 µM (inactive) | 1.91 µM (inactive) | 2.12 µM (inactive) | 2.08 µM (inactive) | 2.65 µM (inactive) | 1.6 µM (inactive) | 2.22 µM (inactive) | 3.08 µM (inactive) | 1.52 µM (inactive) | 3.3 µM (inactive) |  | 1.48 µM (inactive)
CCN(CCCN(CC)C(=O)Nc1c(C)cccc1C)C(=O)Nc1c(C)cccc1C | > 100 µM (inactive) | > 100 µM (inactive) | > 100 µM (inactive) | > 100 µM (inactive) | > 100 µM (inactive) | > 100 µM (inactive) | > 100 µM (inactive) | > 100 | 43.1 µM (inactive) | > 100 µM (inactive) | > 100 µM (inactive) | > 100 µM (inactive) | > 100 µM (inactive) | > 100 µM (inactive) |  | > 100 µM (inactive) | > 100 µM (inactive) | > 100 µM (inactive) | > 100 µM (inactive) | 
O=C(NC/C=C/Br)NC1CCNc2ccccc21 (centres undefined) | 26.6 µM (inactive) | 32.1 µM (inactive) | 52.7 µM (inactive) | 31.9 µM (inactive) | 45.4 µM (inactive) | 74 µM (inactive) | 21.8 µM (inactive) | 37.3 | 29.2 µM (inactive) | 76.6 µM (inactive) | 17.7 µM (inactive) | 41 µM (inactive) | 45.2 µM (inactive) | 19.5 µM (inactive) | 32.1 µM (inactive) | > 100 µM (inactive) | 56.8 µM (inactive) | 41.3 µM (inactive) |  | 35 µM (inactive)
COc1ccc(CCN2CCN(CCCc3ccccc3)CC2)cc1 | > 100 µM (inactive) | 83 µM (inactive) | > 100 µM (inactive) | > 100 µM (inactive) | > 100 µM (inactive) | > 100 µM (inactive) | 77.3 µM (inactive) | 37.7 |  | 96.8 µM (inactive) | 86.9 µM (inactive) | > 100 µM (inactive) | > 100 µM (inactive) | 23.2 µM (inactive) | > 100 µM (inactive) | > 100 µM (inactive) | 92 µM (inactive) | > 100 µM (inactive) |  | 47.8 µM (inactive)
COc1cc(C2SCC(=O)N2c2ccccn2)cc(OC)c1OC (centres undefined) | > 100 µM (inactive) | 39.6 µM (inactive) | > 100 µM (inactive) | 19 µM (inactive) | > 100 µM (inactive) | 57.7 µM (inactive) | 49.8 µM (inactive) | 55.5 |  | 81.1 µM (inactive) | > 100 µM (inactive) | > 100 µM (inactive) |  | 55 µM (inactive) | 58.7 µM (inactive) | > 100 µM (inactive) | > 100 µM (inactive) | > 100 µM (inactive) | 14.2 µM (inactive) | 31.6 µM (inactive)
COC(=O)c1cc(C(=O)OC)cc(-c2ccc3c(c2)-c2nc4c(c(-c5ccc(OC)cc5)c2CC3)CCc2ccc(-c3cc(C(=O)OC)cc(C(=O)OC)c3)cc2-4)c1 | > 100 µM (inactive) | > 100 µM (inactive) |  | > 100 µM (inactive) | > 100 µM (inactive) | > 100 µM (inactive) | > 100 µM (inactive) | > 100 |  |  | > 100 µM (inactive) | > 100 µM (inactive) | > 100 µM (inactive) | > 100 µM (inactive) |  | > 100 µM (inactive) |  | > 100 µM (inactive) | > 100 µM (inactive) | 
COC1=C(Br)[C@H](O)[C@@]2(C=C1Br)CC(C(=O)NCCCCCNC(=N)N)=NO2 [APLYSINAMISINE II] | > 10 µM (inactive) | > 10 µM (inactive) | > 10 µM (inactive) | > 10 µM (inactive) | > 10 µM (inactive) | > 10 µM (inactive) | > 10 µM (inactive) | > 10 | > 10 µM (inactive) | > 10 µM (inactive) | > 10 µM (inactive) | > 10 µM (inactive) | > 10 µM (inactive) | > 10 µM (inactive) | > 10 µM (inactive) | > 10 µM (inactive) | > 10 µM (inactive) | > 10 µM (inactive) |  | 6.87 µM (inactive)
